Data: patent publication US20250250298A1, “ONCOLYTIC PEPTIDE AND USE THEREOF” (Rise Biopharmaceuticals Inc., priority 2022, published 2025)
Where a SMILES comes first, the peptide text is derived from it.

Tests used:
[1] = test system: SAS (Human tongue carcinoma); assay: MTT cytotoxicity, SAS; assay type: cell-based; details: 24 hours incubation
Description: (§1) The MTT assay is a colorimetric method for measuring the activity of enzymes in living cells that reduces Thiazolyl blue tetrazolium bromide (MTT) to formazan dyes showing a purple color. In this embodiment, a colorimetric 3-(4.5-dimethylthiazol-2-yl)-2.5-diphenyltetrazodium bromide (MTT) viability assay was used to assess the in vitro cytotoxicity of oncolytic peptides.
(§2) The half inhibition concentration (IC50) is the concentration required by the oncolytic peptides to reach fifty percent inhibition. In one embodiment, the oncolytic peptides were used for IC50 test via MTT colorimetric assay.
(§3) All cancer cell lines were seeded in a 96-well plate with a concentration of 5000-8000 cells/100 μl/well and incubated for 24 hrs. After medium was removed, 100 μl fresh medium containing peptide (ranging from 50 μM to 0.8 μM) was added to the wells. Following 24 hours incubation, fresh medium with MTT (0.5 mg/ml) was replaced and incubated for 3 hours. After medium/MTT was removed, DMSO was added at 100 μl for dissolving the formazan crystal. Cell survival rate was calculated by measuring the absorbance at 540 nm using a Multi-labeled Microplate Reader (Sunrise™, TECAN).

[2] = test system: A549 (Human non-small cell lung cancer cell); assay: MTT cytotoxicity, A549; assay type: cell-based; details: A549, 24 hours incubation
Description: as §1, §2
(§4) Human lung cancer lines PC9 and A549 and murine pancreatic cancer cell line Panc02 were cultured in RPMI medium supplemented with 10% fetal bovine serum and antibiotic in this embodiment. Additionally, murine hepatoma cell line Hepa 1-6, murine melanoma cell line B16-F10, murine fibrosarcoma cell line MN-11, murine mammary cancer cell line E0771 and human diploid fibroblast (HFW) were cultured in DMEM medium supplemented with 10% fetal bovine serum and antibiotic. Cells were cultured in a humidified incubator containing 5% CO2 at 37° C.
as §3

[3] = test system: B16-F10 (Murine skin malignant melanoma); assay: MTT cytotoxicity, B16-F10; assay type: cell-based; details: B16-F10, 24 hours incubation
Description: as §1, §2, §4, §3

[4] = test system: EO771 (Murine mammary adenocarcinoma); assay: MTT cytotoxicity, EO771; assay type: cell-based; details: EO771, 24 hours incubation
Description: as §1, §2, §4, §3

[5] = test system: HUVEC (Human Umbilical Vein Endothelial (Cell)); assay: MTT cytotoxicity, HUVEC; assay type: cell-based; details: 24 hours incubation
Description: as §1, §2, §3

[6] = test system: Hepa I-6 (Murine hepatocellular carcinoma); assay: MTT cytotoxicity, Hepa 1-6; assay type: cell-based; details: Hepa I-6, 24 hours incubation
Description: as §1, §2, §4, §3

[7] = test system: MN-11 (Murine fibrosarcoma); assay: MTT cytotoxicity, MN-11; assay type: cell-based; details: MN-11, 24 hours incubation
Description: as §1, §2, §4, §3

MN-11 fibrosarcoma = assay type: in vivo; details: MN-11 tumor-bearing C57BL/6 mice
Procedure: FIGS. 4A-4B are schematic diagrams of MN-11 fibrosarcoma experiments. FIG. 4A: The right flank of the mouse was administrated with SEQ ID NO:9, and the left flank of the mouse was untreated (tumor only). […] Palpable tumors (100 mm^3) were injected (IT.) with single doses of SEQ ID NO:9 dissolved in PBS (1.0 mg peptide/50 μl PBS) once a day for 5 consecutive days, and the vehicle control was saline only (0.9% NaCl).
Female C57BL/6 mice (4- to 6-week old) as allogeneic model animals were purchased from BioLASCO Taiwan Co., Ltd. and maintained in a specific pathogen-free and controlled environment. During the experiments, female mice, weighing 18.0-24.0 g each, were kept in groups of 4 to 6 animals per cage under climate-controlled conditions, with 12 h light/dark cycles and an ambient temperature. The mice were housed in an enriched individually ventilated cage (IVC) system with free access to standard rodent chow and water ad libitum. The animals were anesthetized during the experimental procedures with 2.5% isoflurane gas. The animals were monitored daily. […]
Tumor size was measured 3 times a week using a caliper, and the volume of tumors was calculated using the following formula: Tumor size (mm^3)=0.5×(width^2×length). […] The survival rates of tumor-bearing mice were observed and recorded continuously until all animals died. […]

[8] = test system: HCT-15 (Human colorectal cancer); assay: MTT cytotoxicity, HCT-15; assay type: cell-based; details: HCT-15, 24 hours incubation
Description: as §1, §2, §3

RBC (Human blood cell) = assay: Cytotoxicity, RBC; assay type: cell-based
Description: as §2

[9] = test system: A375 (human malignant melanoma); assay: MTT cytotoxicity, A375; assay type: cell-based; details: A375, 24 hours incubation
Description: as §1, §2, §3

HFW (Human fibroblast) = assay: MTT cytotoxicity, HFW; assay type: cell-based; details: 24 hours incubation
Description: as §1, §2, §4, §3

[10] = test system: PC9 (Human non-small cell lung cancer cell); assay: MTT cytotoxicity, PC9; assay type: cell-based; details: PC9, 24 hours incubation
Description: as §1, §2, §4, §3

CC(C)C[C@H](NC(=O)[C@H](Cc1ccc2ccccc2c1)NC(=O)[C@H](CCCCN)NC(=O)[C@H](CC(C)C)NC(=O)[C@H](Cc1c[nH]c2ccccc12)NC(=O)[C@H](CCCCN)NC(=O)[C@H](CCCNC(=N)N)NC(=O)[C@H](Cc1c[nH]c2ccccc12)NC(=O)[C@H](CCCNC(=N)N)NC(=O)[C@H](CCCNC(=N)N)NC(=O)[C@H](CCCCN)NC(=O)[C@H](CCCCN)NC(=O)[C@H](CCCCN)NC(=O)[C@@H](N)CCCCN)C(=O)N[C@@H](C)C(=O)N[C@@H](CCCCN)C(N)=O [SEQ ID NO: 9, KKKK-RR-WRK-WLK-Nal-LA-K-NH2] (HELM PEPTIDE1{K.K.K.K.R.R.W.R.K.W.L.K.[O=C([C@H](Cc1ccc2ccccc2c1)N[*:1])[*:2]].L.A.K.[am]}$$$$V2.0; N-terminus assumed)
IC50 [1]: 6.03 µM
IC50 [2]: 2.79 µM
IC50 [3]: 7.16 µM
IC50 [4]: 2.01 µM
IC50 [5]: 6.32 µM
IC50 [6]: 1.69 µM
IC50 [7]: 2.9 µM
Survival (lifespan) (MN-11 fibrosarcoma; IT. 1.0 mg once a day for 5 days, vs untreated controls): extended the lifespan
Tumor growth, treated tumor (right side) (MN-11 fibrosarcoma; IT. 1.0 mg peptide/50 μl PBS once a day for 5 consecutive days, vs saline control): significantly inhibited unilateral (right side) tumor growth
IC50 [8]: 2.42 µM
IC50 (RBC (Human blood cell)): 25.7 µM
IC50 [9]: 3.84 µM
IC50 (HFW (Human fibroblast)): 3.38 µM
IC50 [10]: 3.02 µM
